Test results taken from the supplement of paper PMC8967900.

Columns and labels:
Assay in all cases: selective drug sensitivity score (sDSS, relative to normal bone marrow) (sDSS (score)); higher = more potent and effective on the cell line relative to normal bone marrow cells
Settings in all cases: 72 h
[1] = system: 697
[2] = system: CCRF-CEM
[3] = system: CCRF-HSB2
[4] = system: COG-LL-332h
[5] = system: COG-LL-355h
[6] = system: DND-41
[7] = system: HAL-01
[8] = system: KARPAS-45
[9] = system: KOPN-8
[10] = system: LC4-1
[11] = system: MHH-CALL-2
[12] = system: MHH-CALL-4
[13] = system: MN-60
[14] = system: MOLT-16
[15] = system: NALL-1
[16] = system: P12-ICHIKAWA
[17] = system: P30-OHKUBO
[18] = system: RPMI-8402
[19] = system: SUP-B15
[20] = system: TMD5
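Also: ALL cell lines in 384-well plates, five doses spanning 10,000-fold, each plate scaled between vehicle and 100 µmol/L benzalkonium chloride controls, sDSS an adapted area-under-curve metric.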

SMILES	selective drug sensitivity score [1]	selective drug sensitivity score [2]	selective drug sensitivity score [3]	selective drug sensitivity score [4]	selective drug sensitivity score [5]	selective drug sensitivity score [6]	selective drug sensitivity score [7]	selective drug sensitivity score [8]	selective drug sensitivity score [9]	selective drug sensitivity score [10]	selective drug sensitivity score [11]	selective drug sensitivity score [12]	selective drug sensitivity score [13]	selective drug sensitivity score [14]	selective drug sensitivity score [15]	selective drug sensitivity score [16]	selective drug sensitivity score [17]	selective drug sensitivity score [18]	selective drug sensitivity score [19]	selective drug sensitivity score [20]
CC1(C)CCC(c2ccc(Cl)cc2)=C(CN2CCN(c3ccc(C(=O)NS(=O)(=O)c4ccc(N[C@H](CCN5CCOCC5)CSc5ccccc5)c(S(=O)(=O)C(F)(F)F)c4)cc3)CC2)C1 [Navitoclax] (top concentration 10000 nM)	13	17.4	8.92	8.42	28.9	15.1	14.8	22.8	23.2	22.2	21.1	18.4	-8.58	12.2	22.9	17.6	16.8	7.42	27.5	16.9
CNC(=O)c1cccc(-c2ccc3c(N4CCOC[C@@H]4C)nc(N4CCOC[C@@H]4C)nc3n2)c1 [Vistusertib] (top concentration 10000 nM)	15.1	8.22	5.42	4.62	6.12	9.02	5.12	5.02	19.7	5.12	9.52	5.82	2.72	5.62	-3.58	3.72	11.7	5.52	10.7	3.02
O=C1CCc2c(Oc3ccc4c(c3)[C@@H]3[C@H](O4)[C@H]3c3nc4cc(C(F)(F)F)ccc4[nH]3)ccnc2N1 [Lifirafenib (BGB-283)] (top concentration 10000 nM)	6.68	4.18	8.88	8.18	4.78	1.18	6.48	2.88	13.1	3.28	4.88	7.58	1.48	3.98	8.28	3.18	5.28	2.28	17	15.9
CC(C)Nc1cc(-c2c[nH]c(C(=O)N[C@H](CO)c3cccc(Cl)c3)c2)c(Cl)cn1 [Ulixertinib] (top concentration 10000 nM)	1.62	2.82	1.32	1.92	3.82	4.72	1.92	-0.18	5.42	0.32	2.72	2.22	-4.38	2.42	3.92	1.22	-0.18	-1.38	6.62	2.12
COCCNCc1ccc(-c2cc3nccc(Oc4ccc(NC(=O)C5(C(=O)Nc6ccc(F)cc6)CC5)cc4F)c3s2)nc1 [Sitravatinib] (top concentration 2500 nM)	1.58	0.18	9.28	5.98	2.58	0.98	5.28	3.78	8.08	1.28	6.78	5.48	0.78	-0.42	9.38	0.08	5.78	2.38	8.68	11
COc1cccc2c1C(=O)c1c(O)c3c(c(O)c1C2=O)C[C@@](O)(/C(CO)=N/NC(=O)CCCCCN1C(=O)C=CC1=O)C[C@@H]3O[C@H]1C[C@H](N)[C@H](O)[C@H](C)O1 [Aldoxorubicin] (top concentration 1000 nM)	10.2	7.24	14.8	12.1	4.44	1.84	0.34	0.94	14.2	6.34	9.84	8.14	0.84	16.6	-1.86	5.04	7.34	5.34	12.5	0.34
COc1c(C)cnc(Cn2cnc3c(Cl)nc(N)nc32)c1C [BIIB021] (top concentration 10000 nM)	4.28	7.88	10.8	8.98	0.38	8.58	3.98	8.88	12	0.98	2.48	1.28	-2.62	12.7	1.08	2.28	3.38	0.68	4.48	1.58
O=C(Nc1cccc(NC(=O)c2cccc(O)c2O)c1)c1cccc(O)c1O [MST-312] (top concentration 10000 nM)	-1.2	7.1	12.8	13.1	3.2	7.2	7.6	8.1	15.2	8.1	10.8	1.8	9.8	17.3	0.8	6.6	8.1	5.9	9.5	-3
Cn1cc(-c2[nH]c3cc(NC(=O)[C@H](N)C4CCCCC4)cc4c3c2C=NNC4=O)cn1 (top concentration 10000 nM)	9.38	6.08	6.98	4.98	1.98	10.3	-6.52	6.78	7.38	7.58	3.48	0.88	-1.82	9.68	4.58	7.38	9.08	9.68	6.58	-0.12
